Measured values published in ChEMBL document CHEMBL1201862, “PubChem BioAssay data set” (2004).
Activity calls are given as the source filed them.

Columns and labels:
[1] = target: T1, Sentrin-specific protease 6 (Homo sapiens, UniProt Q9GZR1); assay: SENP6 protease inhibitors, SAR follow-up, biochemical, luminescence, set 2 (AID 588598); assay type: functional
T1 sequence (Q9GZR1 whole entry): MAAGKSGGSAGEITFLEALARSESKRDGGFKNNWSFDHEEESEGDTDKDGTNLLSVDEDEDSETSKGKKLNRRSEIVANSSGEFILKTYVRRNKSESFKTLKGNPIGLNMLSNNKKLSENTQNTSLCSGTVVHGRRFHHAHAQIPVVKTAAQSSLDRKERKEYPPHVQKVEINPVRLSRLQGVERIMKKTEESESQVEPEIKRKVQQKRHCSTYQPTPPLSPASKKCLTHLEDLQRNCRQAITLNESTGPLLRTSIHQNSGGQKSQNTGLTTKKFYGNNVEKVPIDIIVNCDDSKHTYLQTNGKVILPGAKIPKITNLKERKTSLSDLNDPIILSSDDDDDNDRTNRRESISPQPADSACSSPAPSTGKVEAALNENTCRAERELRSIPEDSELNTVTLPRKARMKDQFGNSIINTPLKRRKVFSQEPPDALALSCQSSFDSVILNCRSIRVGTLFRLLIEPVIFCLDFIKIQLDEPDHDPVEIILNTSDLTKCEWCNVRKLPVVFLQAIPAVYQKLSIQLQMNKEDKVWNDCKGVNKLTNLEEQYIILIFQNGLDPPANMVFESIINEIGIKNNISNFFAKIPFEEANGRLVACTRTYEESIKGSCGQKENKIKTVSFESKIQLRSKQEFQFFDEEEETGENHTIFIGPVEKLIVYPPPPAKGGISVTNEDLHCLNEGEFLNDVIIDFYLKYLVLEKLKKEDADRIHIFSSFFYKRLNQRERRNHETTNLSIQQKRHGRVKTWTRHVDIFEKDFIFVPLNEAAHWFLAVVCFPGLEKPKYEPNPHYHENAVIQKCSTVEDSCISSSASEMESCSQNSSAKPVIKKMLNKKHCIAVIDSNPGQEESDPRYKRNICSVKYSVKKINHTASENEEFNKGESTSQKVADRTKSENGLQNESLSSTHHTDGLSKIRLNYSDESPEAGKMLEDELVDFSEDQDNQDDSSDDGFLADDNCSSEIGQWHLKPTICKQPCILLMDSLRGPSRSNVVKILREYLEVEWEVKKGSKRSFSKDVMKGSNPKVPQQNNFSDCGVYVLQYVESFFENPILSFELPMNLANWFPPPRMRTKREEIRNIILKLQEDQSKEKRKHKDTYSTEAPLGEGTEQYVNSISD

[2] = target: T2, Sentrin-specific protease 8 (Homo sapiens, UniProt Q96LD8); assay: SENP8 protease inhibitors, SAR follow-up, biochemical, luminescence, set 2 (AID 588601); assay type: functional
T2 sequence (Q96LD8 whole entry): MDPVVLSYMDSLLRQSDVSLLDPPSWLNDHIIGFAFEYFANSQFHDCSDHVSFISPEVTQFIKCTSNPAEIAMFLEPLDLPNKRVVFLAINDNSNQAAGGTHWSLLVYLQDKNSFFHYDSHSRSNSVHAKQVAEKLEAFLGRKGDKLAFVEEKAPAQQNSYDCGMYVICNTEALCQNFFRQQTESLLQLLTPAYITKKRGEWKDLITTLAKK

[3] = target: T3, Caspase-3 (Homo sapiens, UniProt P42574); assay: caspase-3 inhibitors as off-family protease, SAR follow-up, selectivity assay for SENP protease inhibitor project, biochemical, luminescence, set 2 (AID 588599); assay type: functional
T3 sequence (P42574 whole entry): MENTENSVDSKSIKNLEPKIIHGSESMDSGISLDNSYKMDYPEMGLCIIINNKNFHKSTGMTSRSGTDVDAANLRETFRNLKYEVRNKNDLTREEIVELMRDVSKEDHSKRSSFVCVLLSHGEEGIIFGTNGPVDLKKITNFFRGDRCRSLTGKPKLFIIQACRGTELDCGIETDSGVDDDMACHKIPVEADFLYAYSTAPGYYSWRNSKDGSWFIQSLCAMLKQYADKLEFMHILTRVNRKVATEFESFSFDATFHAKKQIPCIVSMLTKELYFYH

[4] = target: T4, Sentrin-specific protease 7 (Homo sapiens, UniProt Q9BQF6); assay: SENP7 protease inhibitors, SAR follow-up, biochemical, luminescence, set 2 (AID 588600); assay type: functional
T4 sequence (Q9BQF6 whole entry): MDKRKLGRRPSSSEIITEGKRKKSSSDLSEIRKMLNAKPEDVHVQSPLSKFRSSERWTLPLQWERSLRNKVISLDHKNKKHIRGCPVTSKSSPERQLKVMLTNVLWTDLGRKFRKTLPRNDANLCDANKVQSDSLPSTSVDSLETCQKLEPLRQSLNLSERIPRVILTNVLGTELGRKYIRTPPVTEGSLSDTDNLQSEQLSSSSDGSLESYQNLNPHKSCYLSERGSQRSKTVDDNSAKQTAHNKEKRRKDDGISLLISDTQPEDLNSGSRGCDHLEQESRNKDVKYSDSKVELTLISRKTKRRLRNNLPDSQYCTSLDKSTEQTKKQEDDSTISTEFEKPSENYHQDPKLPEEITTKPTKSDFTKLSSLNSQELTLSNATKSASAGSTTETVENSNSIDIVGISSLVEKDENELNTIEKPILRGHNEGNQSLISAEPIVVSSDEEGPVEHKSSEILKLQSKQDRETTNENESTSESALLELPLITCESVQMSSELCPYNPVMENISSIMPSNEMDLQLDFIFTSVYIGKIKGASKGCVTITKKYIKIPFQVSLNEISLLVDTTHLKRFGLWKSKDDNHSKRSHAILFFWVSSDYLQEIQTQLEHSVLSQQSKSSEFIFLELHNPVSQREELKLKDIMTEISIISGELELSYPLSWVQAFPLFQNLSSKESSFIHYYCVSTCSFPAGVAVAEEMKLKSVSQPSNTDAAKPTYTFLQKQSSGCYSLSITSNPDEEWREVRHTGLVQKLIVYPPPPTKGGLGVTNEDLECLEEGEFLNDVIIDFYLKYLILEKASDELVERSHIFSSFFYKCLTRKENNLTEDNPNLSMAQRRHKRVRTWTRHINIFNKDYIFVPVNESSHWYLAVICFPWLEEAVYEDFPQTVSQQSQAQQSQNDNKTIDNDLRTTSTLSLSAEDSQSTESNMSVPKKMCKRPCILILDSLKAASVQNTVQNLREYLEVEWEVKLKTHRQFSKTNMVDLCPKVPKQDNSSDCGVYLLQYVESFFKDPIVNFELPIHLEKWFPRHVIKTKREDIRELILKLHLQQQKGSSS

[5] = (§1) Counterscreen for antagonists of the orexin 1 receptor (OX1R; HCRTR1): Fluorescence-based cell-based high throughput dose response assay to identify antagonists of the parental CHO cell line. [Related pubchem assays (depositor defined):AID434989, AID435008, AID463079, AID485270, AID492963, AID492964, AID492965, AID493232, AID504699, AID504701]; assay type: functional
[6] = target: T5, Orexin receptor type 2 (Homo sapiens, UniProt O43614); assay: Counterscreen assay for antagonists of the orexin 1 receptor (OX1R; HCRTR1): Fluorescence-based cell-based dose response assay for antagonists of the orexin 2 receptor (OX2R; HCRTR2), run by assay provider.; assay type: functional
T5 sequence (O43614 whole entry): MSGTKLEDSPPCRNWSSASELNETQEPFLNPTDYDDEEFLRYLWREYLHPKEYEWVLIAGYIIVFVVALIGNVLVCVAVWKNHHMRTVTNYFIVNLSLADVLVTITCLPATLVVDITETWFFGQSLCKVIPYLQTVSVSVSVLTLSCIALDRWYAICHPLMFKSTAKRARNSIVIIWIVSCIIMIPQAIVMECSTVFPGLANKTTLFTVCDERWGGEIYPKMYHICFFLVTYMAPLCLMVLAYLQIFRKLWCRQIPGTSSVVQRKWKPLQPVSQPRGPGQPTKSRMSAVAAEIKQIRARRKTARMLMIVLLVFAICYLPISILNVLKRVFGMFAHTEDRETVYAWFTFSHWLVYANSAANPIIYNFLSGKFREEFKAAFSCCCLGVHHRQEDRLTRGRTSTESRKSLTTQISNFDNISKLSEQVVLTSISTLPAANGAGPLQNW

[7] = Luminescence Cell-Based Dose Confirmation HTS to Identify Activators of 5'UTR Stem-Loop Driven Alpha-Synuclein mRNA Translation in H4 Neuroglioblastoma Cells. [Related pubchem assays: 1829 (Project Summary), 1814 (Primary HTS)]; assay type: functional
[8] = tested on: CHO-K1; assay: as §1, with “Homogeneous time resolved fluorescence (HTRF)-based” for “Fluorescence-based”, “cell-based” for “cell-based high throughput”, “CHO-K1” for “CHO”; assay type: functional; settings: Cricetulus griseus;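 also: potency for inhibition of ATP-stimulated IP1 production as antagonists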
[9] = target: T6, Orexin/Hypocretin receptor type 1 (Homo sapiens, UniProt O43613); assay: Homogeneous Time Resolved Fluorescence (HTRF)-based cell-based high throughput dose response assay for antagonists of the orexin 1 receptor (OX1R; HCRTR1). [Related pubchem assays (depositor defined):AID434989, AID435008, AID463079, AID485270, AID492963, AID492964, AID492965, AID493232, AID504717, AID504718]; assay type: functional
T6 sequence (O43613 whole entry): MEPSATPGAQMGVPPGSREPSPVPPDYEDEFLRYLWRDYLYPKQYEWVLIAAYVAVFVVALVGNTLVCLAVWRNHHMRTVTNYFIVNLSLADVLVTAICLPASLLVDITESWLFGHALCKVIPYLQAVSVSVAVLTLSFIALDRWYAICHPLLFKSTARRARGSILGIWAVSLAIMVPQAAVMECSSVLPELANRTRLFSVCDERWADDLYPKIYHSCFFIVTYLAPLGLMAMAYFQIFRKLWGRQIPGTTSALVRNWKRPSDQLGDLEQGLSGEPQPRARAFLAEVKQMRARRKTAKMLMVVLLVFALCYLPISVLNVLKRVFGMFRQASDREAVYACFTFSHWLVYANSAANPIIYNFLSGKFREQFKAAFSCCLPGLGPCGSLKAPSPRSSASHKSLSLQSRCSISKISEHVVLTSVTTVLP

[10] = Luminescence Cell-Based Dose Response HTS to Identify Activators of Luciferase Translation or Activity in H4 […] Cells. [Related pubchem assays: 1829 (Project Summary), 1814 (Primary HTS)]; assay type: functional
[11] = target: T6, Orexin/Hypocretin receptor type 1; assay: Fluorescence-based cell-based high throughput dose response assay for antagonists of the orexin 1 receptor (OX1R; HCRTR1). [Related pubchem assays (depositor defined):AID434989, AID435008, AID463079, AID485270, AID492963, AID492964, AID492965, AID493232, AID504717, AID504718]; assay type: functional
[12] = target: T5, Orexin receptor type 2; assay: Counterscreen assay for antagonists of the orexin 1 receptor (OX1R; HCRTR1): Homogeneous Time Resolved Fluorescence (HTRF)-based cell-based dose response assay for antagonists of the orexin 2 receptor (OX2R; HCRTR2), run by assay provider.; assay type: functional
[13] = tested on: H4; assay: Luminescence Cell-Based Dose Response HTS to Identify Activators of 5'UTR Stem-Loop Driven Prion Protein mRNA Translation in H4 Neuroglioblastoma Cells. [Related pubchem assays: 1829 (Project Summary), 1814 (Primary HTS)]; assay type: functional; settings: Homo sapiens
[14] = target: Serine/threonine-protein kinase pim-1 (Homo sapiens, UniProt P11309); assay type: functional
[15] = HEp-2 cell cytotoxicity, dose response, cytotoxicity control for RSV inhibitor project, HTS (AID 2410); assay type: functional; settings: human respiratory syncytial virus
[16] = target: Voltage-gated inwardly rectifying potassium channel KCNH2 (Homo sapiens, UniProt Q12809); settings: Potency;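 also: confirmatory quantitative high-throughput screen measuring inhibition of hERG channel activity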
[17] = target: Heat shock protein HSP 90-alpha (Homo sapiens, UniProt P07900); assay type: functional, organism-based

Voltage-gated inwardly rectifying potassium channel KCNH2, sequence (Q12809 whole entry): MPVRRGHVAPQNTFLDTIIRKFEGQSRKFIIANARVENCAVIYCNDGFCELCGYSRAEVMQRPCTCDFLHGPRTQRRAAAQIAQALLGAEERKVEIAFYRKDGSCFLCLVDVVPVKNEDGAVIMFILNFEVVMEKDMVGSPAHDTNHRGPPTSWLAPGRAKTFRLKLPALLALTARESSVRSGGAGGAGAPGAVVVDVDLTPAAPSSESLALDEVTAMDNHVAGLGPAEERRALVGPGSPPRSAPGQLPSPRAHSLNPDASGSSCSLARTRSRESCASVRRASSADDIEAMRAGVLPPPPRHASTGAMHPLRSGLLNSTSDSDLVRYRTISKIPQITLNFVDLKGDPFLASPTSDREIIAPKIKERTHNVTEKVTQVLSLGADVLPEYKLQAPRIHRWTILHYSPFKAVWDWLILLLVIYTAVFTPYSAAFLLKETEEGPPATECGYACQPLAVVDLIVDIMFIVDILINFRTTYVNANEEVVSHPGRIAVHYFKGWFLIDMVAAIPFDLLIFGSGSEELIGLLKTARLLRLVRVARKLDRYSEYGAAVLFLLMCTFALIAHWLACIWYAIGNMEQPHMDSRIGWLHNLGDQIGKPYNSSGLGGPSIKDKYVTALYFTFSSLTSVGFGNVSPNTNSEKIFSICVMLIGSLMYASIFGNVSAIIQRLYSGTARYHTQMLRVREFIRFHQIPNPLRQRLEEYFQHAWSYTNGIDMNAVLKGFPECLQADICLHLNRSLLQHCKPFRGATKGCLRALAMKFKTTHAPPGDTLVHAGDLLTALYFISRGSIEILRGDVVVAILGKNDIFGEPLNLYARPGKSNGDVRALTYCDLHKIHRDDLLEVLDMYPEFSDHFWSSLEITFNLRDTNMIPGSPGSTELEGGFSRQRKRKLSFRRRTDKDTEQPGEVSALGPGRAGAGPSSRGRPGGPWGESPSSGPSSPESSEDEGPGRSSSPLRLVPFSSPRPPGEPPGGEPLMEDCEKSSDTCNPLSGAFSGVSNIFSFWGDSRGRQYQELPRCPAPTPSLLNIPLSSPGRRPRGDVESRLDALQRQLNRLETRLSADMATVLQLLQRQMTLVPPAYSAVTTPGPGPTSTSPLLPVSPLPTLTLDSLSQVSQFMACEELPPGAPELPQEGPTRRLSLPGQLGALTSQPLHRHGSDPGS
Serine/threonine-protein kinase pim-1, sequence (P11309 whole entry): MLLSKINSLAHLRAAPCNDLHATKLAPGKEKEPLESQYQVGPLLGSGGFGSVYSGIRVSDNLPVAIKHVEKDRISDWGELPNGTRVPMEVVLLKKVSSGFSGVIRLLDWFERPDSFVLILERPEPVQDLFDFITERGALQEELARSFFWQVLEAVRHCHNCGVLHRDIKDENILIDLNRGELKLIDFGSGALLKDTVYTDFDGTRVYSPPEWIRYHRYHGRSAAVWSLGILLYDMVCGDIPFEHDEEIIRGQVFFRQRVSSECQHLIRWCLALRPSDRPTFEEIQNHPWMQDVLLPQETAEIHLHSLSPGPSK

## Cc1ccccc1-c1noc(/C(C#N)=C\c2ccc3c(c2)OCCO3)n1
[1]
  IC50: 4.82 µM (active)
[2]
  IC50: > 99 µM (inactive)
[3]
  IC50: 2.16 µM (active)
[4]
  IC50: 5.42 µM (active)

## CSc1nc2ccc3nc(NC(=O)c4ccccc4)sc3c2s1
[5]
  IC50: > 49.7 µM (inactive)
[6]
  IC50: > 88.8 µM (inactive)
[7]
  EC50: 43.8 µM (active)
[8]
  IC50: > 66.2 µM (inactive)
[9]
  IC50: 1.13 µM (active)
[10]
  EC50: 38.3 µM (active)
[11]
  IC50: 2.05 µM (active)
[12]
  IC50: > 50 µM (inactive)
[13]
  EC50: > 120 µM (not active)

## Cc1cc(=O)n2[nH]cc(C(=O)NCc3ccccc3)c2n1
[14]
  Ki: 3.98 µM (active)

## CCCCCCCCCCCCCCCC(=O)OC(CC(=O)O)C[N+](C)(C)C (configuration not stated)
[15]
  CC50: 23.7 µM (active)
[16]
  AC50: 35.5 µM (inconclusive)
[17]
  AC50: 1.39 µM (active)
